Measurements taken from patent US9695155B2, “Herbicidal substituted pyrimidinyloxy benzene compounds” (E. I. DU PONT DE NEMOURS AND COMPANY, priority 2013, dated 2017).

Tests used:
barnyardgrass [1] = assay: Test A postemergence; type: in vivo, Echinochloa crus-galli
Outline: (§1)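 Visual 0–100 rating (100 = complete control) taken about 10 d post-treatment relative to untreated checks. Preemergence: directed soil spray on sown loam/sand pots. Postemergence: seedlings 2–10 cm, 1–2 leaf. Non-phytotoxic solvent formulation with surfactant.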

rice = assay: Test B flooded paddy test; type: in vivo, Oryza sativa; conditions: Flood, 250 g ai/ha; 0 to 100 scale where 0 is no effect and 100 is complete control
Outline: (§2)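 Greenhouse flooded-pot test: compounds dosed into 3 cm standing water over 2-leaf plants, flood held constant. Rated visually after 13–15 days on 0–100 (complete control = 100); a dash marks no test result.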

corn [2] = assay: Test A preemergence; type: in vivo, Zea mays; conditions: for Corn plant response rating (0 to 100 scale): 125 g ai/ha; for Corn plant response rating: 500 g ai/ha, 0 to 100 scale where 0 is no effect and 100 is complete control
Outline: as §1

sedge, umbrella = assay: Test B flooded paddy test; type: in vivo, Cyperus difformis; conditions: Flood, 250 g ai/ha; 0 to 100 scale where 0 is no effect and 100 is complete control
Outline: as §2

giant foxtail [3] = assay: Test A postemergence; type: in vivo, Setaria faberii
Outline: as §1

velvetleaf [4] = assay: Test A postemergence; type: in vivo, Abutilon theophrasti
Outline: as §1

wheat [5] = assay: Test A postemergence; type: in vivo, Triticum aestivum
Outline: as §1

giant foxtail [6] = assay: Test A preemergence; type: in vivo, Setaria faberii; conditions: for Foxtail, Giant plant response rating (0 to 100 scale): 125 g ai/ha; for Foxtail, Giant plant response rating: 500 g ai/ha, 0 to 100 scale where 0 is no effect and 100 is complete control
Outline: as §1

Heteranthera limosa = assay: Test B flooded paddy test; type: in vivo; conditions: Flood, 250 g ai/ha; 0 to 100 scale where 0 is no effect and 100 is complete control
Outline: as §2

pigweed [7] = assay: Test A preemergence; type: in vivo, Amaranthus retroflexus; conditions: for Pigweed plant response rating (0 to 100 scale): 125 g ai/ha; for Pigweed plant response rating: 500 g ai/ha, 0 to 100 scale where 0 is no effect and 100 is complete control
Outline: as §1

morningglory [8] = assay: Test A postemergence; type: in vivo, Ipomoea spp.
Outline: as §1

pigweed [9] = assay: Test A postemergence; type: in vivo, Amaranthus retroflexus
Outline: as §1

wheat [10] = assay: Test A preemergence; type: in vivo, Triticum aestivum; conditions: for Wheat plant response rating (0 to 100 scale): 125 g ai/ha; for Wheat plant response rating: 500 g ai/ha, 0 to 100 scale where 0 is no effect and 100 is complete control
Outline: as §1

velvetleaf [11] = assay: Test A preemergence; type: in vivo, Abutilon theophrasti; conditions: for Velvetleaf plant response rating (0 to 100 scale): 125 g ai/ha; for Velvetleaf plant response rating: 500 g ai/ha, 0 to 100 scale where 0 is no effect and 100 is complete control
Outline: as §1

barnyardgrass [12] = assay: Test A preemergence; type: in vivo, Echinochloa crus-galli; conditions: for Barnyardgrass plant response rating (0 to 100 scale, 0 is no effect, 100 is complete control): 125 g ai/ha; for Barnyardgrass plant response rating: 500 g ai/ha, 0 to 100 scale where 0 is no effect and 100 is complete control
Outline: as §1

corn [13] = assay: Test A postemergence; type: in vivo, Zea mays
Outline: as §1

large (Lg) crabgrass [14] = assay: Test A preemergence; type: in vivo, Digitaria sanguinalis; conditions: for Crabgrass, Large plant response rating (0 to 100 scale): 125 g ai/ha; for Crabgrass, Large plant response rating: 500 g ai/ha, 0 to 100 scale where 0 is no effect and 100 is complete control
Outline: as §1

barnyardgrass [15] = assay: Test B flooded paddy test; type: in vivo, Echinochloa crus-galli; conditions: Flood, 250 g ai/ha; 0 to 100 scale where 0 is no effect and 100 is complete control
Outline: as §2

morningglory [16] = assay: Test A preemergence; type: in vivo, Ipomoea spp.; conditions: for Morningglory plant response rating (0 to 100 scale): 125 g ai/ha; for Morningglory plant response rating: 500 g ai/ha, 0 to 100 scale where 0 is no effect and 100 is complete control
Outline: as §1

large (Lg) crabgrass [17] = assay: Test A postemergence; type: in vivo, Digitaria sanguinalis
Outline: as §1

[18] = 125 g ai/ha, 0 to 100 scale where 0 is no effect and 100 is complete control
[19] = 500 g ai/ha, 0 to 100 scale where 0 is no effect and 100 is complete control
[20] = 125 g ai/ha, 0 to 100 scale, 0 no effect, 100 complete control

SMILES: N#Cc1cccc(Oc2ncc(Cl)cn2)c1-n1cc(Br)cn1 [Compound 235]
- Barnyardgrass plant response rating (barnyardgrass [1]; [18]): 0
- Plant response rating, Barnyardgrass (barnyardgrass [1]; [19]): 0
- Plant response rating, Rice (rice): 0
- Corn plant response rating (0 to 100 scale) (corn [2]): 0
- Corn plant response rating (corn [2]): 0
- Plant response rating, Sedge, Umbrella (sedge, umbrella): 0
- Foxtail, Giant plant response rating (giant foxtail [3]; [18]): 0
- Plant response rating, Foxtail, Giant (giant foxtail [3]; [19]): 30
- Velvetleaf plant response rating (velvetleaf [4]; [18]): 30
- Plant response rating, Velvetleaf (velvetleaf [4]; [19]): 30
- Wheat plant response rating (wheat [5]; [18]): 0
- Plant response rating, Wheat (wheat [5]; [19]): 0
- Foxtail, Giant plant response rating (0 to 100 scale) (giant foxtail [6]): 30
- Foxtail, Giant plant response rating (giant foxtail [6]): 100
- Plant response rating, Ducksalad (Heteranthera limosa): 0
- Pigweed plant response rating (0 to 100 scale) (pigweed [7]): 90
- Pigweed plant response rating (pigweed [7]): 100
- Morningglory plant response rating (morningglory [8]; [18]): 30
- Plant response rating, Morningglory (morningglory [8]; [19]): 30
- Pigweed plant response rating (pigweed [9]; [18]): 90
- Plant response rating, Pigweed (pigweed [9]; [19]): 100
- Wheat plant response rating (0 to 100 scale) (wheat [10]): 0
- Wheat plant response rating (wheat [10]): 0
- Velvetleaf plant response rating (0 to 100 scale) (velvetleaf [11]): 0
- Velvetleaf plant response rating (velvetleaf [11]): 0
- Barnyardgrass plant response rating (0 to 100 scale, 0 is no effect, 100 is complete control) (barnyardgrass [12]): 0
- Barnyardgrass plant response rating (barnyardgrass [12]): 10
- Corn plant response rating (corn [13]; [18]): 0
- Plant response rating, Corn (corn [13]; [19]): 0
- Crabgrass, Large plant response rating (0 to 100 scale) (large (Lg) crabgrass [14]): 70
- Crabgrass, Large plant response rating (large (Lg) crabgrass [14]): 100
- Plant response rating, Barnyardgrass (barnyardgrass [15]): 0
- Morningglory plant response rating (0 to 100 scale) (morningglory [16]): 0
- Morningglory plant response rating (morningglory [16]): 0
- Crabgrass, Large plant response rating (large (Lg) crabgrass [17]; [18]): 10
- Plant response rating, Crabgrass, Large (large (Lg) crabgrass [17]; [19]): 30

SMILES: N#Cc1cnn(-c2c(C=O)cccc2Oc2ncc(Cl)cn2)c1 [Compound 237]
- Barnyardgrass plant response rating (barnyardgrass [1]; [18]): 0
- Plant response rating, Barnyardgrass (barnyardgrass [1]; [19]): 0
- Plant response rating, Rice (rice): 0
- Corn plant response rating (0 to 100 scale) (corn [2]): 0
- Corn plant response rating (corn [2]): 0
- Plant response rating, Sedge, Umbrella (sedge, umbrella): 0
- Foxtail, Giant plant response rating (giant foxtail [3]; [18]): 0
- Plant response rating, Foxtail, Giant (giant foxtail [3]; [19]): 0
- Velvetleaf plant response rating (velvetleaf [4]; [18]): 20
- Plant response rating, Velvetleaf (velvetleaf [4]; [19]): 30
- Wheat plant response rating (wheat [5]; [18]): 0
- Plant response rating, Wheat (wheat [5]; [19]): 0
- Foxtail, Giant plant response rating (0 to 100 scale) (giant foxtail [6]): 0
- Foxtail, Giant plant response rating (giant foxtail [6]): 0
- Plant response rating, Ducksalad (Heteranthera limosa): 0
- Pigweed plant response rating (0 to 100 scale) (pigweed [7]): 0
- Pigweed plant response rating (pigweed [7]): 80
- Morningglory plant response rating (morningglory [8]; [18]): 0
- Plant response rating, Morningglory (morningglory [8]; [19]): 0
- Pigweed plant response rating (pigweed [9]; [18]): 30
- Plant response rating, Pigweed (pigweed [9]; [19]): 70
- Wheat plant response rating (0 to 100 scale) (wheat [10]): 0
- Wheat plant response rating (wheat [10]): 0
- Velvetleaf plant response rating (0 to 100 scale) (velvetleaf [11]): 0
- Velvetleaf plant response rating (velvetleaf [11]): 10
- Barnyardgrass plant response rating (0 to 100 scale, 0 is no effect, 100 is complete control) (barnyardgrass [12]): 0
- Barnyardgrass plant response rating (barnyardgrass [12]): 10
- Corn plant response rating (corn [13]; [18]): 0
- Plant response rating, Corn (corn [13]; [19]): 0
- Crabgrass, Large plant response rating (0 to 100 scale) (large (Lg) crabgrass [14]): 0
- Crabgrass, Large plant response rating (large (Lg) crabgrass [14]): 10
- Plant response rating, Barnyardgrass (barnyardgrass [15]): 0
- Morningglory plant response rating (0 to 100 scale) (morningglory [16]): 0
- Morningglory plant response rating (morningglory [16]): 0
- Crabgrass, Large plant response rating (large (Lg) crabgrass [17]; [18]): 0
- Plant response rating, Crabgrass, Large (large (Lg) crabgrass [17]; [19]): 0

SMILES: N#Cc1cc(F)cc(Oc2ncc(Br)cn2)c1-n1cc(Br)cn1 [Compound 239]
- Barnyardgrass plant response rating (barnyardgrass [1]; [18]): 0
- Plant response rating, Barnyardgrass (barnyardgrass [1]; [19]): 80
- Plant response rating, Rice (rice): 30
- Corn plant response rating (0 to 100 scale) (corn [2]): 0
- Corn plant response rating (corn [2]): 10
- Plant response rating, Sedge, Umbrella (sedge, umbrella): 70
- Foxtail, Giant plant response rating (giant foxtail [3]; [18]): 20
- Plant response rating, Foxtail, Giant (giant foxtail [3]; [19]): 70
- Velvetleaf plant response rating (velvetleaf [4]; [18]): 50
- Plant response rating, Velvetleaf (velvetleaf [4]; [19]): 60
- Wheat plant response rating (wheat [5]; [18]): 0
- Plant response rating, Wheat (wheat [5]; [19]): 0
- Foxtail, Giant plant response rating (0 to 100 scale) (giant foxtail [6]): 90
- Foxtail, Giant plant response rating (giant foxtail [6]): 100
- Plant response rating, Ducksalad (Heteranthera limosa): 65
- Pigweed plant response rating (0 to 100 scale) (pigweed [7]): 100
- Pigweed plant response rating (pigweed [7]): 100
- Morningglory plant response rating (morningglory [8]; [18]): 40
- Plant response rating, Morningglory (morningglory [8]; [19]): 40
- Pigweed plant response rating (pigweed [9]; [18]): 90
- Plant response rating, Pigweed (pigweed [9]; [19]): 100
- Wheat plant response rating (0 to 100 scale) (wheat [10]): 0
- Wheat plant response rating (wheat [10]): 20
- Velvetleaf plant response rating (0 to 100 scale) (velvetleaf [11]): 10
- Velvetleaf plant response rating (velvetleaf [11]): 20
- Barnyardgrass plant response rating (0 to 100 scale, 0 is no effect, 100 is complete control) (barnyardgrass [12]): 20
- Barnyardgrass plant response rating (barnyardgrass [12]): 100
- Corn plant response rating (corn [13]; [18]): 0
- Plant response rating, Corn (corn [13]; [19]): 20
- Crabgrass, Large plant response rating (0 to 100 scale) (large (Lg) crabgrass [14]): 100
- Crabgrass, Large plant response rating (large (Lg) crabgrass [14]): 100
- Plant response rating, Barnyardgrass (barnyardgrass [15]): 0
- Morningglory plant response rating (0 to 100 scale) (morningglory [16]): 0
- Morningglory plant response rating (morningglory [16]): 30
- Crabgrass, Large plant response rating (large (Lg) crabgrass [17]; [18]): 10
- Plant response rating, Crabgrass, Large (large (Lg) crabgrass [17]; [19]): 70

SMILES: Brc1cnn(-c2ccccc2Oc2ncccn2)c1 [Compound 275]
- Plant response rating, Barnyardgrass (barnyardgrass [1]; [20]): 0
- Plant response rating, Barnyardgrass (barnyardgrass [1]; [19]): 0
- Plant response rating, Rice (rice): 15
- Corn plant response rating (0 to 100 scale) (corn [2]): 0
- Corn plant response rating (corn [2]): 0
- Plant response rating, Sedge, Umbrella (sedge, umbrella): 0
- Plant response rating, Foxtail, Giant (giant foxtail [3]; [20]): 0
- Plant response rating, Foxtail, Giant (giant foxtail [3]; [19]): 30
- Plant response rating, Velvetleaf (velvetleaf [4]; [20]): 60
- Plant response rating, Velvetleaf (velvetleaf [4]; [19]): 90
- Plant response rating, Wheat (wheat [5]; [20]): 0
- Plant response rating, Wheat (wheat [5]; [19]): 0
- Foxtail, Giant plant response rating (0 to 100 scale) (giant foxtail [6]): 0
- Foxtail, Giant plant response rating (giant foxtail [6]): 70
- Plant response rating, Ducksalad (Heteranthera limosa): 30
- Pigweed plant response rating (0 to 100 scale) (pigweed [7]): 80
- Pigweed plant response rating (pigweed [7]): 90
- Plant response rating, Morningglory (morningglory [8]; [20]): 10
- Plant response rating, Morningglory (morningglory [8]; [19]): 50
- Plant response rating, Pigweed (pigweed [9]; [20]): 80
- Plant response rating, Pigweed (pigweed [9]; [19]): 90
- Wheat plant response rating (0 to 100 scale) (wheat [10]): 0
- Wheat plant response rating (wheat [10]): 0
- Velvetleaf plant response rating (0 to 100 scale) (velvetleaf [11]): 20
- Velvetleaf plant response rating (velvetleaf [11]): 60
- Barnyardgrass plant response rating (0 to 100 scale, 0 is no effect, 100 is complete control) (barnyardgrass [12]): 0
- Barnyardgrass plant response rating (barnyardgrass [12]): 0
- Plant response rating, Corn (corn [13]; [20]): 0
- Plant response rating, Corn (corn [13]; [19]): 0
- Crabgrass, Large plant response rating (0 to 100 scale) (large (Lg) crabgrass [14]): 0
- Crabgrass, Large plant response rating (large (Lg) crabgrass [14]): 70
- Plant response rating, Barnyardgrass (barnyardgrass [15]): 15
- Morningglory plant response rating (0 to 100 scale) (morningglory [16]): 0
- Morningglory plant response rating (morningglory [16]): 0
- Plant response rating, Crabgrass, Large (large (Lg) crabgrass [17]; [20]): 0
- Plant response rating, Crabgrass, Large (large (Lg) crabgrass [17]; [19]): 20
